# Legend:
# [1] = Rotorod (ip), mouse; details: in vivo, mice
# [2] = system: hippocampal kindled rat; assay: Hippocampal kindled rat model (focal seizures); type: in vivo; details: <300 mg/kg i.p., vs vehicle controls
# Source text: Hippocampal Kindled Rat Test is designed to quantify the anticonvulsant effects of a test compound in the kindled rat model. Rats treated by i.p. injection.
# The Kindled Rat is a model of temporal lobe epilepsy, which is the most common and drug-resistant type of adult focal epilepsy (Morimoto et al., 2004). […] This acquired hyper-responsiveness is called kindling and results not only in increased seizure responses but also in an elongation of the after-discharge duration seen on an EEC recording. Electrodes are implanted into the hippocampus of anesthetized rats, which are then allowed to recover for one week. […] At each time point, the behavioral seizure score (BSS) and after-discharge duration (ADD) is recorded. The BSS's are scored according to the following criteria (Racine, Electroencephalogr Clin Neurophysiol 1972, 32:281-94): Stage 1—mouth and facial clonus; Stage 2—stage 1 plus head nodding; Stage 3—stage 2 plus forelimb clonus; Stage 4—stage 3 plus rearing; and Stage 5—stage 4 plus repeated rearing and falling.
# The afterdischarge threshold (ADT) can also be measured in the kindled rat. […] The individual rat ADT is then determined at varying times (i.e., 0.25, 1, 2, and 4 hr) after drug administration.
# [3] = system: corneal kindled mice; assay: Corneal kindling mouse model (focal seizures); type: in vivo
# Source text: Mice are kindled electrically with 3 sec stimulation, 8 mA, 60 Hz, and coneal electrodes to a criterion of 10 consecutive Stage 5 seizures (facial clonus and head nodding progressing to forelimb clonus, and finally rearing and falling accompanied by a generalized clonic seizure as described by Racine (Racine R J. Neurophysiol., 1972. 32: p. 281-294) Stage 5 is generally reached after twice daily stimulation for 8 days. With continued stimulation once a day, animals usually progress to a reproducible Stage 5 after 10-14 additional days. At least 72 hours after the mice have been kindled, the test substance is administered either i.p. or p.o. and, at the previously determined TPE, each animal is given the electrical stimulus indicated above. Following stimulation, the animals are observed for the presence or absence of the rearing and falling criteria of a Stage 5 seizure. Treated animals not displaying a Stage 3, 4, or 5 seizure are considered protected. The dose of the test substance is varied between the limits of 0 and 100% efficacy, and the ED50 and 95% confidence intervals calculated by probit analysis. Mean values and the S.E.M. are calculated for the length of clonus and seizure duration and p values are determined by the Student's t-test.
compound,measurement,setting,value
O=C1COc2cc(OCc3ccc(OC(F)F)cc3)ccc2N1 [Compound I(B)],ED50 at 0.5 hours,[1],> 500 mg/kg
same,suppression of fully kindled (stage 5) seizures,[2],dose related suppression of fully kindled (stage 5) seizures
same,ED50,"[3]; Mus musculus, corneal kindled mice, read-out: ED50, suppression of fully kindled (stage 5) seizures",119 ± 1.81 mg/kg
same,Average Seizure,[3]; dose 35 mg/kg,5
same,N/F (number of animals active over the number tested),[3]; dose 35 mg/kg,0/8
same,Average Seizure,[3]; dose 70 mg/kg,4.6
same,N/F (number of animals active over the number tested),[3]; dose 70 mg/kg,1/8
same,Average Seizure,[3]; dose 140 mg/kg,2.4
same,N/F (number of animals active over the number tested),[3]; dose 140 mg/kg,5/8
same,Average Seizure,[3]; dose 300 mg/kg,0.8
same,N/F (number of animals active over the number tested),[3]; dose 300 mg/kg,8/8
same,effect on fully kindled (stage 5) seizures,[3]; vs vehicle controls,dose related suppression of fully kindled (stage 5) seizures

# Reference: patent US10428030B2, “Heterocycle derivatives and their use for the treatment of CNS disorders” (Trillium Therapeutics Inc., priority 2015, dated 2019)
